In assay [1] the target is Hepatocyte growth factor receptor (Homo sapiens, UniProt P08581). Put plainly: Inhibition of recombinant c-Met by time resolved-fluorescence resonance energy transfer analysis.
The next assay is described as follows: cells. The note with it: Homo sapiens, Hs746T, 72 h.
The target in assay [2] is T1, Receptor-type tyrosine-protein kinase FLT3 (Homo sapiens, UniProt P36888).
T1 sequence (P36888 whole entry): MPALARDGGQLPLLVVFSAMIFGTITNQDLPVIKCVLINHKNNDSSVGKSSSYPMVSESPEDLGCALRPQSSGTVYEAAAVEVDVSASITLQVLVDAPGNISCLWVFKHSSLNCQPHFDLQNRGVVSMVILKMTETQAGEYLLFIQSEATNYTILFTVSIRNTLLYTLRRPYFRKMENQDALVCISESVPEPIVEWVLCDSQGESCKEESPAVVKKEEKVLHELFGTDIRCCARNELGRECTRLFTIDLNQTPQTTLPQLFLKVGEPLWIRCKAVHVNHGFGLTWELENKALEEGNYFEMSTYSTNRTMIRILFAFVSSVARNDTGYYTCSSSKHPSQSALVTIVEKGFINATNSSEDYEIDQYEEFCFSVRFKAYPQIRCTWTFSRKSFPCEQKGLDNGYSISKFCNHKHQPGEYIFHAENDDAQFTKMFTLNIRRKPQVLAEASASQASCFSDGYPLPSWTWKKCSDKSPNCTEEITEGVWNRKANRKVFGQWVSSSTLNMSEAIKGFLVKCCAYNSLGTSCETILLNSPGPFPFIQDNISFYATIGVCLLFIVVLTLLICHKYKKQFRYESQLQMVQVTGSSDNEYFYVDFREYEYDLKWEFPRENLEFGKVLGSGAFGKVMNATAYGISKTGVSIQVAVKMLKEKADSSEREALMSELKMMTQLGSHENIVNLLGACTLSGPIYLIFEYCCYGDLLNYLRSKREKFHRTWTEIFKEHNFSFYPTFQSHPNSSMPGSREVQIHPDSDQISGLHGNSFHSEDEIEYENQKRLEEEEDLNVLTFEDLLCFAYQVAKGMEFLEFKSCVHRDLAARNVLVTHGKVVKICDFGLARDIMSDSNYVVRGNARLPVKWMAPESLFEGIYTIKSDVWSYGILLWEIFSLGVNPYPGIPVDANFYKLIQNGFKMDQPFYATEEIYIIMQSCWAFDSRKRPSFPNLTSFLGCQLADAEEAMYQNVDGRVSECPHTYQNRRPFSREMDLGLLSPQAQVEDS
The experiment in a line: Inhibition of recombinant FLT3 by time resolved-fluorescence resonance energy transfer analysis.

A further assay concerns the target T2, Aurora kinase A (Homo sapiens, UniProt O14965).
T2 sequence (O14965 whole entry): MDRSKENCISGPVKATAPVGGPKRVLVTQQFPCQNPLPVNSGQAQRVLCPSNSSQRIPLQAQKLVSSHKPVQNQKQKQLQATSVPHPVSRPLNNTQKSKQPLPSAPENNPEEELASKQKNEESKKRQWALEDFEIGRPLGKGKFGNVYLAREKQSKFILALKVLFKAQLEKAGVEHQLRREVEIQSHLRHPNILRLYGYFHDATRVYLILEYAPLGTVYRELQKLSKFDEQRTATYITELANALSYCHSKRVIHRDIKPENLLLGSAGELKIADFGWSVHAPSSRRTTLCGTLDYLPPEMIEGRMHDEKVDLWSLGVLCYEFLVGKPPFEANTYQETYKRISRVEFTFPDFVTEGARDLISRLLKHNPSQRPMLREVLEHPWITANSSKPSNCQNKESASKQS
The experiment in a line: Inhibition of Aurora A.

The target of assay [3] is Macrophage-stimulating protein receptor (Homo sapiens, UniProt Q04912). The experiment in a line: Inhibition of Ron.
Assay [4] addresses Receptor-type tyrosine-protein kinase FLT3 (Homo sapiens, UniProt P36888, D835Y). Put plainly: Inhibition of FLT3 D835Y mutant.

Description for cells: Cytotoxicity against human Hs 746T cells after 72 hrs by WST-8 assay

As to `Nc1ncc(-c2cnn(C3CCNCC3)c2)cc1-c1nc2cc(Cl)ccc2o1`, in assay [1], the IC50 is 53 nM.

For `Nc1ncc(-c2cnn(C3CCNCC3)c2)cc1-c1nc2cc(Cl)cc(F)c2o1`, the IC50 in assay [1] was 41 nM.

In the case of `CC(=O)c1ccc2nc(-c3cc(-c4cnn(C5CCNCC5)c4)cnc3N)oc2c1`, the IC50 in assay [1] was 800 nM.

On to `CC(O)c1ccc2nc(-c3cc(-c4cnn(C5CCNCC5)c4)cnc3N)oc2c1` (stereo not drawn), for which, in assay [1], the IC50 turned out to be 130 nM.

Take `Nc1ncc(-c2cnn(C3CCNCC3)c2)cc1-c1nc2ccc(-c3cccnc3)cc2o1`: in assay [1], the IC50 is 28 nM.

With `Nc1ncc(-c2cnn(C3CCNCC3)c2)cc1-c1nc2ccc(-c3cc[nH]n3)cc2o1`, the IC50 in assay [1] turned out to be 210 nM.

Regarding `Nc1ncc(-c2cnn(C3CCNCC3)c2)cc1-c1nc2cccc(-c3ccccn3)c2o1`, inhibition in “cells” was half-maximal at 240 nM (IC50).

`COc1ccc(-c2cccc3nc(-c4cc(-c5cnn(C6CCNCC6)c5)cnc4N)oc23)cc1`: in assay [1], the IC50 was found to be 77 nM.

For `CC(C)Nc1cccc2nc(-c3cc(-c4cnn(C5CCNCC5)c4)cnc3N)oc12`, the IC50 in assay [1] is 130 nM.

On to `CNc1ccc2oc(-c3cc(-c4cnn(C5CCNCC5)c4)cnc3N)nc2c1`, for which the IC50 in assay [1] came to 160 nM.

`CC(=O)Nc1ccc2oc(-c3cc(-c4cnn(C5CCNCC5)c4)cnc3N)nc2c1` [listing 1 of 2 here]: in assay [1], the IC50 was found to be 540 nM.

As for `CCCNc1ccc2nc(-c3cc(-c4cnn(C5CCNCC5)c4)cnc3N)oc2c1`, in assay [1], the IC50 came out at 150 nM.

On to `Nc1ncc(-c2cnn(C3CCNCC3)c2)cc1-c1nc2ccc(Nc3ncccn3)cc2o1`, for which the IC50 in assay [1] worked out at 63 nM.

Take `Nc1ncc(-c2cnn(C3CCNCC3)c2)cc1-c1nc2ccc(Oc3ccncn3)cc2o1`: in assay [1], the IC50 came out at 34 nM.

With `Nc1ncc(-c2cnn(C3CCNCC3)c2)cc1-c1nc2ccc(Oc3ncccn3)cc2o1`, the concentration for half-maximal inhibition (IC50) in assay [1] worked out at 23 nM.

With `Nc1ncc(-c2cnn(C3CCNCC3)c2)cc1-c1nc2cc(O)ccc2o1`, the concentration for half-maximal inhibition (IC50) in assay [1] was 22 nM.

As to `Nc1ncc(-c2cnn(C3CCNCC3)c2)cc1-c1nc2ccc(O)cc2o1`, the IC50 in assay [2] worked out at 4 nM; on Aurora kinase A, 90 nM; in assay [1], 19 nM; in the assay “cells”, 450 nM; in assay [3], 14 nM; in assay [4], 0.3 nM.

As to `Nc1ncc(-c2cnn(C3CCNCC3)c2)cc1-c1nc2cccc(O)c2o1`, the IC50 in assay [1] stood at 110 nM.

`Cc1cc2oc(-c3cc(-c4cnn(C5CCNCC5)c4)cnc3N)nc2cc1O`: in the assay “cells”, it took 12 nM to reach half-maximal inhibition (IC50).

Consider `Cc1cc2oc(-c3cc(-c4cnn(C5CCNCC5)c4)cnc3N)nc2c(C)c1O`, for which the IC50 in assay [1] was determined as 3 nM.

In turn, `CCc1cc2oc(-c3cc(-c4cnn(C5CCNCC5)c4)cnc3N)nc2cc1O` yielded an IC50 in “cells” of 22 nM.

For the compound `Cc1cc2nc(-c3cc(-c4cnn(C5CCNCC5)c4)cnc3N)oc2cc1O`, the IC50 in assay [1] was 180 nM.

Regarding `Cc1c(O)ccc2nc(-c3cc(-c4cnn(C5CCNCC5)c4)cnc3N)oc12`, the IC50 in assay [2] was found to be 34 nM; in assay [1], 0.2 nM; in “cells” it was 35 nM.

In the case of `Nc1ncc(-c2cnn(C3CCNCC3)c2)cc1-c1nc2ccc(O)c(-c3cccnc3)c2o1`, the IC50 in assay [1] came to 4 nM.

Regarding `Nc1ncc(-c2cnn(C3CCNCC3)c2)cc1-c1nc2ccc(O)c(-c3cnccn3)c2o1`, in the assay “cells”, the IC50 was found to be 180 nM.

`Nc1ncc(-c2cnn(C3CCNCC3)c2)cc1-c1nc2ccc(O)c(-c3ccccc3)c2o1`: the 50% inhibitory concentration (IC50) turned out to be 14 nM in assay [2], 48 nM in assay [1] and 10 nM in the assay “cells”.

For `Nc1ccc2oc(-c3cc(-c4cnn(C5CCNCC5)c4)cnc3N)nc2c1`, the IC50 in assay [1] was 56 nM.

As to `Nc1ccc2nc(-c3cc(-c4cnn(C5CCNCC5)c4)cnc3N)oc2c1`, the IC50 in assay [2] turned out to be 3.6 nM; in assay [1] it was 14 nM; in “cells”, 3700 nM.

`Nc1ncc(-c2cnn(C3CCNCC3)c2)cc1-c1nc2ccc(NC(=O)Nc3ccccc3)cc2o1`: in assay [1], the IC50 was 130 nM.

With `CS(=O)(=O)Nc1ccc2nc(-c3cc(-c4cnn(C5CCNCC5)c4)cnc3N)oc2c1`, the IC50 in assay [1] was 88 nM.

Turning to `Nc1ncc(-c2cnn(C3CCNCC3)c2)cc1-c1nc2ccc(NS(=O)(=O)c3ccc(F)cc3)cc2o1`, the IC50 in assay [1] is 67 nM.

With `Nc1ncc(-c2cnn(C3CCNCC3)c2)cc1-c1nc2ccc(Nc3ccc(F)cc3)cc2o1`, in assay [1], the IC50 turned out to be 410 nM.

Take `Cc1ccc(S(=O)(=O)NC(=O)Nc2ccc3nc(-c4cc(-c5cnn(C6CCNCC6)c5)cnc4N)oc3c2)cc1`: the IC50 in assay [1] stood at 45 nM.

On to `Cn1cc(-c2cnc(N)c(-c3nc4ccc(Cl)cc4o3)c2)cn1`, for which the IC50 in assay [1] was found to be 1700 nM.

As for `CN1CCC(n2cc(-c3cnc(N)c(-c4nc5ccc(F)cc5o4)c3)cn2)CC1`, the IC50 in assay [1] came out at 240 nM.

With `Nc1ncc(-c2cnn(C3CCN(CCO)CC3)c2)cc1-c1nc2ccc(F)cc2o1`, the IC50 in assay [1] is 90 nM.

As to `CC(=O)N1CCC(n2cc(-c3cnc(N)c(-c4nc5ccc(Cl)cc5o4)c3)cn2)CC1`, the IC50 in assay [1] amounted to 220 nM.

Take `CC(=O)N1CCC(n2cc(-c3cnc(N)c(-c4nc5cc(O)c(C)cc5o4)c3)cn2)CC1`: in assay [1], the IC50 was 51 nM.

On to `CC(=O)N1CCC(n2cc(-c3cnc(N)c(-c4nc5c(C)c(O)c(C)cc5o4)c3)cn2)CC1`, for which the IC50 in assay [1] stood at 28 nM.

Take `Nc1ncc(-c2cnn(CCO)c2)cc1-c1nc2cccc(-c3ccccn3)c2o1`: the concentration for half-maximal inhibition (IC50) in assay [1] is 53 nM.

Regarding `Cn1cc(-c2cnc(N)c(-c3nc4cccc(-c5ccccn5)c4o3)c2)cn1`, in assay [1], the IC50 was found to be 14 nM.

Take `CC(=O)Nc1ccc2oc(-c3cc(-c4cnn(C5CCNCC5)c4)cnc3N)nc2c1` [listing 2 of 2 here]: the IC50 in assay [1] amounted to 540 nM.

The record behind these values is ChEMBL document CHEMBL2029247, “Synthesis and structure-activity relationship of aminopyridines with substituted benzoxazoles as c-Met kinase inhibitors” (Bioorg Med Chem Lett, 2012).
